Legend:
HLA-A*24:02 Tgm = experiment: Long peptide vaccine, IFN-γ ELISpot, HLA-A*24:02 Tgm; type: in vivo, mice; conditions: long peptide (15 to 21 mer) containing the short peptide, CTLs reactive with the short peptide
Protocol: (§1) In ELISpot assay, CD8-positive T cells were isolated from splenocytes of immunized mice by means of an MACS, and suspended at 1×10^5 cells/well, and the resultant was used as effector cells. Splenocytes of unimmunized mice were subjected to radiation (100 kV, 10 mA, 100 Gy), and suspended at a concentration of 2×10^6 cells/well in Final medium supplemented with any one of the peptides at a concentration of 20 ug/ml, and the resultant was used as target cells.

[1] = test system: HLA-A*24:02 transgenic mice; experiment: Peptide vaccine CTL induction, IFN-γ ELISpot, HLA-A*24:02 Tgm; type: in vivo; conditions: HLA-A*24:02-restricted short peptide vaccine once per week, three times, splenocytes
Protocol: (§2) The predicted antigen peptides were evaluated on the capability of inducing CTLs by using transgenic mice with an HLA gene introduced therein. Each peptide was dissolved in dimethyl sulfoxide (DMSO, FUJIFILM Wako Pure Chemical Corporation) at 10 mg/ml, and HLA transgenic mice were immunized with the resultant together with an adjuvant every week, three times in total. One week after that, the spleens were extracted, and the productions of IFN-γ were evaluated through IFN-γ ELISpot assay.
as §1
(§3) FIG. 14, FIG. 15, and Table 1 show identification of multiple peptides each capable of inducing CD8-positive killer T cells (CTLs) reactive with the peptide in splenocytes of mice systemically expressing human HLA-A*24:02 or HLA-A*02:01 in their cells by screening, wherein a peptide vaccine of peptides predicted to be presented by HLA-A*24:02 or HLA-A*02:01 and synthesized from the amino acid sequences of the ten common cancer antigen full-length proteins was administered once per week, three times in total. The rates of inducing CTLs reactive with those peptides were 30 peptides in the 72 HLA-A*24:02-restricted common cancer antigen short peptides, and 38 peptides in the 73 HLA-A*02:01-restricted common cancer antigen short peptides; 68 peptides in the 145 peptides in total.

HLA-A*02:01 Tgm = experiment: Long peptide vaccine, IFN-γ ELISpot, HLA-A*02:01 Tgm; type: in vivo, mice; conditions: long peptide (15 to 21 mer) containing the short peptide, CTLs reactive with the short peptide
Protocol: as §1

[2] = test system: HLA-A*02:01 transgenic mice; experiment: Peptide vaccine CTL induction, IFN-γ ELISpot, HLA-A*02:01 Tgm; type: in vivo; conditions: HLA-A*02:01-restricted short peptide vaccine once per week, three times, splenocytes
Protocol: as §2, §1, §3

Row | Sequence | Long peptide reaction (HLA-A*24:02 Tgm) | CTL induction [1] | Long peptide reaction (HLA-A*02:01 Tgm) | CTL induction [2]
1 | ADFSGLLEKC [CA24 105] | No | Yes | – | –
2 | AFEFVGEFF [A24-GPC3-17] | No | Yes | – | –
3 | ALFTGWAAA [CLDN1-A02-2] | – | – | No | Yes
4 | AWSYGIVMW [CA24 123] | – | Yes | – | –
5 | AYLEVTDVI [CA24 91] | – | Yes | – | –
6 | AYMLEVYGSL [LAT1-A24-5] | No | Yes | – | –
7 | AYYPEDLFI [A24-GPC3-11] | No | Yes | – | –
8 | CYAELGTTI [LAT1-A24-2] | Yes | Yes | – | –
9 | DFSGLLEKC [CA02 104] | – | – | No | Yes
10 | DFSGLLEKC [CA24 102] | No | Yes | – | –
11 | DYIGPCKYI [CA24 54] | – | Yes | – | –
12 | EFGQALFTGW [CLDN1-A24-5] | No | Yes | – | –
13 | ELFDSLFPV [CA02 12] | – | – | – | Yes
14 | FFTDVSLYI [A02-GPC3-18] | – | – | – | Yes
15 | FFTDVSLYI [A24-GPC3-10] | – | Yes | – | –
16 | FIFHKDLCQ [CA02 103] | – | – | No | Yes
17 | FIFHKDLCQA [CA02 101] | – | – | No | Yes
18 | FLAELAYDL [CA02 11] | – | – | Yes | Yes
19 | FLIIQNAAV [A02-GPC3-12] | – | – | No | Yes
20 | FLLCLAGRAL [CA02 56] | – | – | No | Yes
21 | FLRRGPFEL [CA02 21] | – | – | – | Yes
22 | FTYEDPNEAV [CA02 127] | – | – | – | Yes
23 | GLDEEQHSV [CA02 121] | – | – | Yes | Yes
24 | GQFTVIQLV [CA02 126] | – | – | – | Yes

Row | Sequence | Long peptide reaction (HLA-A*24:02 Tgm) | CTL induction [1] | Long peptide reaction (HLA-A*02:01 Tgm) | CTL induction [2]
25 | GWAAASLCL [CLDN1-A24-7] | No | Yes | – | –
26 | HFFATKCTL [CA24 55] | – | Yes | – | –
27 | HLIDKVISTI [CA02 82] | – | – | – | Yes
28 | HYAKIAADF [CA24 21] | No | Yes | – | –
29 | ILMVFSIWL [CA02 95] | – | – | Yes | Yes
30 | ILPYCRPTF [CA24 98] | Yes | Yes | – | –
31 | ILSMIHPQL [LAT1-A02-4] | – | – | No | Yes
32 | IVMWEVMSF [CA24 127] | – | Yes | – | –
33 | IYTWIEDHF [CA24 32] | No | Yes | – | –
34 | KLCGPYEKF [CA24 23, hHSP105α HLA-A*24:02 short peptide] | – | peptide-specific IFN-γ production had been found | – | –
35 | KLDVGNIVL [LAT1-A02-3] | – | – | – | Yes
36 | KMKPLLPRV [CA0233] | – | – | – | Yes
37 | KYFTNCKQW [CA24 85] | – | Yes | – | –
38 | KYVCVGTNM [CA24 95] | – | Yes | – | –
39 | KYWREYILSL [A24-GPC3-06] | No | Yes | – | –
40 | LLQKIEVPL [CA02 24] | – | – | – | Yes
41 | LLTPVPSLV [LAT1-A02-2] | – | – | – | Yes
42 | LQLLGFILA [CLDN1-A02-6] | – | – | – | Yes
43 | MLVAAIQSA [CA02 86] | – | – | No | Yes
44 | MYIFPVHWQF [CA24 51] | No | Yes | – | –
45 | NYGIYKQDL [CA24 25, hHSP105α HLA-A*24:02 short peptide] | – | peptide-specific IFN-γ production had been found | – | –
46 | PFSKVLTFL [CA24 22, hHSP105α HLA-A*24:02 short peptide] | – | peptide-specific IFN-γ production had been found | – | –
47 | PYPEAKIGRF [CA24 24, hHSP105α HLA-A*24:02 short peptide] | – | peptide-specific IFN-γ production had been found | – | –
48 | QLLTPVPSL [LAT1-A02-1] | – | – | No | Yes

Row | Sequence | Long peptide reaction (HLA-A*24:02 Tgm) | CTL induction [1] | Long peptide reaction (HLA-A*02:01 Tgm) | CTL induction [2]
49 | RIYDMENVLL [A02-GPC3-10] | – | – | – | Yes
50 | RLEAGDHPV [CA02 52] | – | – | No | Yes
51 | RYLTLDQVF [CA24 31] | No | Yes | – | –
52 | SLVSNVNIEL [CA02 83] | – | – | Yes | Yes
53 | STIHDSIQYV [A02-GPC3-14] | – | – | Yes | Yes
54 | SYGIVMWEV [CA24 124] | Yes | Yes | – | –
55 | SYMAMIQFAI [CA24 34] | No | Yes | – | –
56 | TFDSSCHFF [CA24 53] | No | Yes | – | –
57 | TIHDSIQYV [CA02 13] | – | – | Yes | Yes
58 | TMNDSLSKI [CA0235] | – | – | No | Yes
59 | TVDGSTFSV [CA02 92] | – | – | – | Yes
60 | VIADRPPPV [CA02 97] | – | – | Yes | Yes
61 | VLDSLVSNV [CA02 81] | – | – | – | Yes
62 | VLLGLFSTI [CA02 15] | – | – | Yes | Yes
63 | VMSWIIPVF [LAT1-A24-6] | – | Yes | – | –
64 | WYGNRIVQEF [CLDN1-A24-2] | No | Yes | – | –
65 | YGNRIVQEF [CLDN1-A24-4] | No | Yes | – | –
66 | YIFPVHWQF [CA24 52] | No | Yes | – | –
67 | YIIEAFSHA [CA02 91] | – | – | – | Yes
68 | YLIGHGTKV [CA02 122] | – | – | – | Yes
69 | YMLEVYGSL [LAT1-A02-5] | – | – | No | Yes
70 | YSYAGDNIV [CLDN1-A02-5] | – | – | – | Yes
71 | YYICQTLNV [CA24 97] | No | Yes | – | –
